{"source": "patent US20200032271A1", "about": "“COMBINATION THERAPY WITH LIPOSOMAL ANTISENSE OLIGONUCLEOTIDES” (Bio-Path Holdings, Inc., priority 2016, published 2020)", "key": {"[1]": {"test": "Plasma pharmacokinetics of Grb2 antisense oligo in patients", "conditions": "plasma", "description": "Pharmacokinetic (PK) analysis was performed on plasma samples collected from refractory/relapsed patients diagnosed with AML receiving BP1001 (60 mg/m^2)+LDAC or receiving BP1001 (90 mg/m^2)+LDAC.\nBlood samples for measurement of Grb2 antisense oligo concentrations were collected from patients in cohorts 7 and 8, at predose, 1, 2, 4, 6, 8, 24, 72 h post start-of-infusion (SOI). Urine samples for measurement of BP1001 concentrations were also collected from patients in cohorts 7 and 8, at start of dose-4 h, 4-8 h postdose, and 8-24 h postdose. PK blood samples were processed to plasma and analyzed using a validated method (Charles River Laboratories, Montreal, Canada) with a lower limit of quantitation (LLOQ; 0.5 ng/mL). Urine samples were analyzed using a validated method (Charles River Laboratories, Montreal, Canada) with a LLOQ of 1.00 ng/mL.\nPK parameters were estimated using Phoenix pharmacokinetic software (Certara). A non-compartmental approach consistent with the IV infusion route of administration was used for parameter estimation, using an estimated infusion time of 2.5 h. All parameters were generated from Grb2 antisense oligo individual concentrations in plasma from Day 1 of Cycle 1, whenever practical. […] Parameters were estimated using nominal sampling times relative to the start of infusion. The area under the concentration vs. time curve (AUC) was calculated using the linear trapezoidal method with linear interpolation. The slope of the terminal elimination phase was determined using log linear regression on the unweighted concentration data."}, "BV173 cells [2]": {"test_system": "BV173 cells", "test": "Cell cycle analysis (7-AAD flow cytometry)", "type": "cell-based, human", "description": "Cells were then fixed and permeabilized for 1 h at 4° C. with 1×Fixation/Permeabilization buffer (Ebioscience, San Diego, Calif., USA). After permeabilization, cells were washed and incubated with 7-aminoactinomycin D (7-AAD, Biolegend, San Diego, Calif., USA) in the dark at 4° C. for about 30 min. Flow cytometric data acquisition was acquired using BD FACSDiva™ software (BD Biosciences, San Jose, Calif., USA). The flow cytometer was set to collect 20,000 events. Relative percentages in the different cell cycle phases (sub-G1, G1, S, G2/M) were reported.\n[…] Three days later, cells were harvested and processed for flow cytometry."}, "BV173 cells [3]": {"test_system": "BV173 cells", "protocol": "BV173 and K562 cells were seeded at 5 and 15×10^3 cells/well, respectively, in 96-well plates in 0.1 mL of medium. Cells were incubated with BP1001 and/or tyrosine kinase inhibitors for 4 days. The viability of untreated and treated leukemia cells was measured by the CellTiter-Glo® Luminescent Cell Viability Assay (Promega, Madison, Wis., USA). The CellTiter-Glo® Luminescent Cell Viability Assay determines the number of viable cells by quantitating the presence of ATP, an indicator of metabolically active cells."}, "[4]": {"conditions": "tyrosine kinase inhibitor alone or after BP1001 pretreatment (FIG. 9A)"}, "[5]": {"conditions": "tyrosine kinase inhibitor alone or followed by BP1001 (FIG. 9B)"}, "[6]": {"conditions": "BP1001 (120 μg/mL in the combination) 1 h before 1 nM dasatinib, four days"}, "[7]": {"conditions": "BP1001 (120 μg/mL in the combination) 1 day before dasatinib"}, "[8]": {"conditions": "dasatinib 1 day, then BP1001 (120 μg/mL in the combination), read 3 days later"}}, "note": "Read-outs that look alike come from different tables or passages of the source. [PEt] = P-ethoxy (ethyl phosphotriester) internucleoside linkage", "data": [{"compound": "5′-ATATTTGGCGATGGCTTC-3′ (DNA, all [PEt], methylation of C not given here) [Grb2 antisense oligo]", "values": [{"measurement": "Tmax", "setting": "[1]; 60 mg/m^2 cohort", "result": 1, "unit": "h"}, {"measurement": "Tmax", "setting": "[1]; 90 mg/m^2 cohort", "result": 1, "unit": "h"}, {"measurement": "decrease of Vz for the dose increase from 60 to 90 mg/m^2", "setting": "[1]", "result": "approximately 1.5 fold"}, {"measurement": "increase of CL for the dose increase from 60 to 90 mg/m^2", "setting": "[1]", "result": "approximately 1.5 fold"}]}, {"compound": "COc1cc(Nc2c(C#N)cnc3cc(OCCCN4CCN(C)CC4)c(OC)cc23)c(Cl)cc1Cl", "note": "[bosutinib]", "values": [{"measurement": "percentage of cells in sub-G1 phase", "setting": "BV173 cells [2]; [4]", "result": 34.3, "unit": "%"}, {"measurement": "percentage of cells in sub-G1 phase", "setting": "BV173 cells [2]; [5]", "result": 66.1, "unit": "%"}]}, {"compound": "Cc1nc(Nc2ncc(C(=O)Nc3c(C)cccc3Cl)s2)cc(N2CCN(CCO)CC2)n1", "note": "[dasatinib]", "values": [{"measurement": "decrease of viability", "setting": "K562 cells; [6]", "result": 25, "unit": "%"}, {"measurement": "decrease of viability", "setting": "K562 cells; [7]", "result": 25, "unit": "%"}, {"measurement": "decrease of viability", "setting": "K562 cells; [8]", "result": 12, "unit": "%"}, {"measurement": "decrease of viability", "setting": "BV173 cells [3]; [6]", "result": 40, "unit": "%"}, {"measurement": "decrease of viability", "setting": "BV173 cells [3]; [7]", "result": 10, "unit": "%"}, {"measurement": "decrease of viability", "setting": "BV173 cells [3]; [8]", "result": 6, "unit": "%"}, {"measurement": "percentage of cells in sub-G1 phase", "setting": "BV173 cells [2]; BP1001 1 day before dasatinib, harvested three days later (FIGS. 8A-D)", "result": 10.6, "unit": "%"}, {"measurement": "percentage of cells in sub-G1 phase", "setting": "BV173 cells [2]; [4]", "result": 30.7, "unit": "%"}, {"measurement": "percentage of cells in sub-G1 phase", "setting": "BV173 cells [2]; [5]", "result": 64.1, "unit": "%"}]}, {"compound": "Cc1cn(-c2cc(NC(=O)c3ccc(C)c(Nc4nccc(-c5cccnc5)n4)c3)cc(C(F)(F)F)c2)cn1", "note": "[nilotinib]", "values": [{"measurement": "percentage of cells in sub-G1 phase", "setting": "BV173 cells [2]; [4]", "result": 26.4, "unit": "%"}, {"measurement": "percentage of cells in sub-G1 phase", "setting": "BV173 cells [2]; [5]", "result": 65.0, "unit": "%"}]}, {"compound": "Cc1ccc(C(=O)Nc2ccc(CN3CCN(C)CC3)c(C(F)(F)F)c2)cc1C#Cc1cnc2cccnn12", "note": "[ponatinib]", "values": [{"measurement": "percentage of cells in sub-G1 phase", "setting": "BV173 cells [2]; [4]", "result": 34.0, "unit": "%"}, {"measurement": "percentage of cells in sub-G1 phase", "setting": "BV173 cells [2]; [5]", "result": 71.1, "unit": "%"}]}]}
